{"source": "patent US20110160147A1", "about": "“NOVEL DUAL TARGETING A[…]” (priority 2008, published 2011)", "key": {"[1]": {"test_system": "PC3 prostate carcinoma cells", "assay": "Cytotoxicity, sulphorodamine B test (PC3)", "format": "cell-based, human", "conditions": "PC3, 72 h of treatment; read-out: IC50 ± SD, cytotoxicity", "experimental": "(§1) To evaluate the effect of the compound on survival cells, the sulphorodamine B test was used. To measure the effects of the compounds on cell growth, PC3 human prostate carcinoma and A2780 human ovarian carcinoma cells were used. A2780 and PC3 tumour cells were grown RPMI 1640 containing 10% fetal bovine serum (GIBCO).\n(§2) Tumour cells were seeded in 96-well tissue culture plates at approximately 10% confluence and were allowed to attach and recover for at least 24 h. Varying concentrations of the drugs were then added to each well to calculate their IC50 value (the concentration which inhibits the 50% of cell survival). The plates were incubated at 37° C. for 72 h. At the end of the treatment, the plates were washed by removal of the supernatant and addition of PBS 3 times. 200 μl PBS and 50 μl of cold 80% trichloroacetic acid (TCA) were added. The plates were incubated on ice for at least 1 h. TCA was removed and the plates were washed 3 times by immersion in distilled-water and dried on paper and at 40° C. for 5 min. Then 200 μl of 0.4% sulphorodamine B in 1% acetic acid were added. The plates were incubated at RT for further 30 min. Sulphorodamine B was removed, the plates were washed by immersion in 1% acetic acid 3 times, then they were dried on paper and at 40° C. for 5 min. Then 200 μl Tris 10 mM were added, the plates were kept under stirring for 20 min. The cell survival was determined by means of optical density using a Multiskan spectrofluorimeter at 540 nm. The amount of cells killed was calculated as the percentage decrease in sulphorodamine B binding compared with control cultures.\n(§3) The IC50 values were calculated with the “ALLFIT” program."}, "[2]": {"test_system": "A2780 ovarian carcinoma cells", "assay": "Cytotoxicity, sulphorodamine B test (A2780)", "format": "cell-based, human", "conditions": "A2780, 72 h of treatment; read-out: IC50 ± SD, cytotoxicity", "experimental": "as §1, §2, §3"}, "[3]": {"assay": "Antitumour activity against A2780 ovarian carcinoma xenografted in CD1 nude mice", "format": "in vivo", "conditions": "CD1 nude, mouse, in vivo, sc; s.c. qdx5/wx2w; read-out: approximate maximum tolerate dose (MTD)", "experimental": "(§4) Tumour cell lines (3×10^6) were injected s.c. into the right flank of CD1 nude mice (Harlan). Each experimental group included 10 mice. Tumours were implanted on day 0, and tumour growth was followed by biweekly measurements of tumour diameters with a Vernier caliper. Tumour volume was calculated according to the formula: TV (mm^3)=d^2×D/2, where d and D are the shortest diameter and the longest diameter respectively. Drug treatment started when tumours were just measurable on day 3 after tumour inoculation. The drug was administered subcutaneously for two weeks according to the schedule qd×5/w×2w at different doses in a volume of 10 ml/kg. Control mice were treated with the vehicle (10% DMSO).\n(§5) Drug efficacy was assessed as described below. • a) TVI in drug-treated versus control mice was expressed as follows: TVI (%)=100−(mean TV treated/mean TV control)×100. TVI was evaluated 6 days after the last treatment, this timing corresponding to the time necessary to observe a doubling of tumour volume in the control mice. • b) Log cell kill (LCK) was calculated using the following formula: LCK=(T−C)/3.32×DT where T and C are the mean time (in days) required for treated (T) and control (C) tumours, respectively to reach a determined volume, and DT is the time necessary to observe a doubling of tumour volume in the control mice. • c) CR was defined as disappearance of the tumour lasting at least 6 days after the end of treatments. Tumours that had not regrown by the end of the experiment were considered “cured”.\n(§6) Toxic effects of drug treatment were assessed as described below. • a) BWL was calculated as follows: BWL (%)=100−(mean body weight day x/mean body weight day 1)×100, where day 1 is the first day of treatment, and day x is any day thereafter. Mice were weighed every day throughout the period of treatment. • b) Lethal toxicity was defined as any death in treated groups occurring before any control death. Mice were inspected daily for mortality.\n(§7) TI (therapeutic index) was calculated as ratio MTD/ED80."}, "[4]": {"test_system": "A2780 ovarian ca. xenografted in CD1 nude mice", "assay": "Antitumour activity against A2780 ovarian carcinoma xenografted in CD1 nude mice", "format": "in vivo", "conditions": "for TVI % versus control mice: 6 days after last treatment", "experimental": "as §4, §5, §6, §7"}, "[5]": {"conditions": "0.92 mg/10 ml/kg s.c. qdx5/wx2w"}, "[6]": {"conditions": "2.77 mg/10 ml/kg s.c. qdx5/wx2w"}}, "note": "Values joined by “and” are separate entries in the source; they are usually repeats but may differ in a detail not shown here. Equal entries are not always repeated.", "data": [{"smiles": "CC[C@@]1(O)C(=O)OCc2c1cc1n(c2=O)Cc2c-1nc1ccccc1c2C=NOCCNC(=O)OCc1ccc(NC(=O)[C@H](CCCNC(N)=O)NC(=O)[C@H](C)NC(=O)COCCOCCOCC(=O)NCc2ccc(C[C@@H]3NC(=O)[C@@H](Cc4ccccc4)NC(=O)[C@H](CC(=O)O)NC(=O)CNC(=O)[C@H](CCCNC(=N)N)NC3=O)cc2)cc1", "note": "[ST3833]", "values": [{"measurement": "IC50", "setting": "[1]", "result": "4.6 ± 0.8", "unit": "µM"}, {"measurement": "IC50", "setting": "[2]", "result": "0.095 ± 0.02", "unit": "µM"}, {"measurement": "MTD at 2 weeks", "setting": "[3]", "result": "~25", "unit": "mg/kg"}, {"measurement": "BWL % (maximum body weight loss)", "setting": "[4]; [5]", "result": 0, "unit": "%"}, {"measurement": "CR (disappearance of tumour)", "setting": "[4]; [5]", "result": "3/10"}, {"measurement": "Cured (mice without lesion 90 days after tumour injection)", "setting": "[4]; [5]", "result": "3/10"}, {"measurement": "LCK (log cell kill)", "setting": "[4]; [5]", "result": 0.9}, {"measurement": "Lethal toxicity (dead/treated animals)", "setting": "[4]; [5]", "result": "0/10"}, {"measurement": "TVI % versus control mice", "setting": "[4]; [5]", "result": 60, "unit": "%"}, {"measurement": "cured mice", "setting": "[4]; 0.92 mg/kg", "result": 30, "unit": "%"}, {"measurement": "BWL % (maximum body weight loss)", "setting": "[4]; [6]", "result": 0, "unit": "%"}, {"measurement": "CR (disappearance of tumour)", "setting": "[4]; [6]", "result": "3/10"}, {"measurement": "Cured (mice without lesion 90 days after tumour injection)", "setting": "[4]; [6]", "result": "3/10"}, {"measurement": "LCK (log cell kill)", "setting": "[4]; [6]", "result": 1.1}, {"measurement": "Lethal toxicity (dead/treated animals)", "setting": "[4]; [6]", "result": "0/10"}, {"measurement": "TVI % versus control mice", "setting": "[4]; [6]", "result": 75, "unit": "%"}, {"measurement": "cured mice", "setting": "[4]; 2.77 mg/kg", "result": 30, "unit": "%"}, {"measurement": "BWL % (maximum body weight loss)", "setting": "[4]; 8.3 mg/10 ml/kg s.c. qdx5/wx2w", "result": 0, "unit": "%"}, {"measurement": "CR (disappearance of tumour)", "setting": "[4]; 8.3 mg/10 ml/kg s.c. qdx5/wx2w", "result": "5/10"}, {"measurement": "Cured (mice without lesion 90 days after tumour injection)", "setting": "[4]; 8.3 mg/10 ml/kg s.c. qdx5/wx2w", "result": "4/10"}, {"measurement": "LCK (log cell kill)", "setting": "[4]; 8.3 mg/10 ml/kg s.c. qdx5/wx2w", "result": 2.7}, {"measurement": "Lethal toxicity (dead/treated animals)", "setting": "[4]; 8.3 mg/10 ml/kg s.c. qdx5/wx2w", "result": "0/10"}, {"measurement": "TVI % versus control mice", "setting": "[4]; 8.3 mg/10 ml/kg s.c. qdx5/wx2w", "result": 100, "unit": "%"}, {"measurement": "BWL % (maximum body weight loss)", "setting": "[4]; 25 mg/10 ml/kg s.c. qdx5/wx2w", "result": "25% and 24%"}, {"measurement": "CR (disappearance of tumour)", "setting": "[4]; 25 mg/10 ml/kg s.c. qdx5/wx2w", "result": "9/9"}, {"measurement": "Cured (mice without lesion 90 days after tumour injection)", "setting": "[4]; 25 mg/10 ml/kg s.c. qdx5/wx2w", "result": "9/9"}, {"measurement": "LCK (log cell kill)", "setting": "[4]; 25 mg/10 ml/kg s.c. qdx5/wx2w", "result": ">11.4"}, {"measurement": "Lethal toxicity (dead/treated animals)", "setting": "[4]; 25 mg/10 ml/kg s.c. qdx5/wx2w", "result": "1/10"}, {"measurement": "TVI % versus control mice", "setting": "[4]; 25 mg/10 ml/kg s.c. qdx5/wx2w", "result": 100, "unit": "%"}, {"measurement": "cured mice", "setting": "[4]; 1/3 MTD (8.3 mg/kg)", "result": 50, "unit": "%"}, {"measurement": "cured mice at day 90", "setting": "[4]; at the MTD (25 mg/kg s.c.)", "result": 100, "unit": "%"}]}]}
